Active and inactive are the calls of the source. The calls are words filed in the database; no cut-off is given here. Where a SMILES comes first, the peptide text is derived from it. [ ]: non-standard residue; d: D form. The star is where a group is joined. ξ: configuration not given here. αGalNAc = CC(=O)N[C@@H]1[C@@H](O)[C@@H](O)[C@@H](CO)O[C@@H]1*; ξGly(tetradecyl) = CCCCCCCCCCCCCCC(N)C(=O)O

In assay [1] the target is Toll-like receptor 2 (Homo sapiens) (UniProt O60603). As to the kind of experiment: Activation of human TLR2 expressed in HEK293 cells at 100 to 300 nM after 4 hrs by luciferase reporter gene assay. It is filed as cell-based. (A reporter such as luciferase makes a cellular process visible.)
Assay [2] deals with Mus musculus. Briefly: Immunostimulatory activity in BALB/c (H-2d) mouse assessed as increase in IgG level at 30 ug, sc per week for 5 weeks coadministered with complete freund's adjuvant measured on day 9 after last immunization by ELISA. It is filed as functional, organism-based. On the technique in general: An ELISA detects its analyte on a solid surface through an enzyme-linked reagent.

In assay [3] the test system is Mus musculus. Briefly: Immunostimulatory activity in BALB/c (H-2d) mouse assessed as increase in IgG level at 30 ug, sc per week for 5 weeks measured on day 9 after last immunization by ELISA relative to untreated-control. Format: functional, organism-based.

Chain of Toll-like receptor 2 (Homo sapiens) (O60603 whole entry): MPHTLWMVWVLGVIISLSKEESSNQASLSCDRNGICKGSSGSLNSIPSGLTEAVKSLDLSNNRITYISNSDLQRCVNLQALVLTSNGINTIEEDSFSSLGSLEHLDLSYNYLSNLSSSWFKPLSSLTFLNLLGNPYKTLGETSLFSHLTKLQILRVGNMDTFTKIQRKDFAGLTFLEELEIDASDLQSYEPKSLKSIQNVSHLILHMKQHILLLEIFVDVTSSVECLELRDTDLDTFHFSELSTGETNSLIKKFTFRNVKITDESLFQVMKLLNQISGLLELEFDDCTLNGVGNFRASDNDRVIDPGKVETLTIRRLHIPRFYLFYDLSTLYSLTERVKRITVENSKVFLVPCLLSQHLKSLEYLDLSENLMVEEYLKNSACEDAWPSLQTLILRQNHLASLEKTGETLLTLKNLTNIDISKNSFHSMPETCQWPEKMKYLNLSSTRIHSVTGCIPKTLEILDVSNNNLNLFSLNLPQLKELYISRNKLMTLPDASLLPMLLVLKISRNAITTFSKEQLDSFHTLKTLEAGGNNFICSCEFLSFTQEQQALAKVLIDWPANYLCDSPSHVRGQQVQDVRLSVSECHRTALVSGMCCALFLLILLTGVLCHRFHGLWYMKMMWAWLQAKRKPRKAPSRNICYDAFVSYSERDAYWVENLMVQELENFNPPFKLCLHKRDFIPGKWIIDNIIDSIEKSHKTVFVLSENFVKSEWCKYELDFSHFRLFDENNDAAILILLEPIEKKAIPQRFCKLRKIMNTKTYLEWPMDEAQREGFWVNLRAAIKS

With `CCCCCCCCCCCCCCC(NC(=O)C(CCCCCCCCCCCCCC)NC(=O)[C@H](CO)NC(=O)[C@H](CO)NC(=O)[C@H](CCCCN)NC(=O)[C@H](CO[C@H]1O[C@H](CO)[C@H](O)[C@H](O)[C@H]1NC(C)=O)NC(C)=O)C(N)=O` (stereo partly specified) (Ac-S(αGalNAc)KSS[ξGly(tetradecyl)][ξGly(tetradecyl)]-NH2), the result in assay [1] was Active.

With `CCCCCCCCCCCCCCC(NC(=O)C(CCCCCCCCCCCCCC)NC(=O)[C@H](CO)NC(=O)[C@H](CO)NC(=O)[C@H](CCCCN)NC(=O)[C@H](CO[C@H]1O[C@H](CO)[C@H](O)[C@H](O)[C@H]1NC(C)=O)NC(=O)[C@H](CO[C@H]1O[C@H](CO)[C@H](O)[C@H](O)[C@H]1NC(C)=O)NC(=O)[C@H](CO[C@H]1O[C@H](CO)[C@H](O)[C@H](O)[C@H]1NC(C)=O)NC(=O)[C@@H](NC(=O)[C@H](CC(=O)O)NC(=O)[C@H](CCCCN)NC(=O)[C@H](Cc1ccc(O)cc1)NC(=O)[C@@H](NC(=O)[C@@H](NC(=O)[C@H](CCCCN)NC(=O)[C@H](Cc1c[nH]c2ccccc12)NC(=O)[C@@H](NC(=O)[C@H](C)NC(=O)[C@H](Cc1ccccc1)NC(=O)[C@H](CC(C)C)NC(=O)[C@H](CCCCN)NC(=O)[C@H](CC(C)C)NC(=O)[C@H](CCCCN)NC(=O)[C@H](CCC(=O)O)NC(=O)[C@H](Cc1ccccc1)NC(=O)[C@H](CC(N)=O)NC(=O)[C@@H](NC(=O)[C@@H](NC(=O)[C@H](CO)NC(C)=O)[C@@H](C)CC)[C@@H](C)CC)C(C)C)[C@@H](C)CC)[C@@H](C)O)[C@@H](C)O)C(N)=O` (stereo partly specified), the result with Mus musculus [2] was Active. In the assay with Mus musculus [3], the outcome was inactive.

As for `CCCCCCCCCCCCCCC(NC(=O)C(CCCCCCCCCCCCCC)NC(=O)[C@H](CO)NC(=O)[C@H](CO)NC(=O)[C@H](CCCCN)NC(=O)[C@H](CO[C@H]1O[C@H](CO)[C@H](O)[C@H](O)[C@H]1NC(C)=O)NC(=O)[C@H](CO[C@H]1O[C@H](CO)[C@H](O)[C@H](O)[C@H]1NC(C)=O)NC(=O)[C@H](CO[C@H]1O[C@H](CO)[C@H](O)[C@H](O)[C@H]1NC(C)=O)NC(=O)[C@@H](NC(=O)[C@H](CC(=O)O)NC(=O)[C@H](CCCCN)NC(=O)[C@H](Cc1ccc(O)cc1)NC(=O)[C@@H](NC(=O)[C@@H](NC(=O)[C@H](CCCCN)NC(=O)[C@H](Cc1c[nH]c2ccccc12)NC(=O)[C@@H](NC(=O)[C@H](C)NC(=O)[C@H](Cc1ccccc1)NC(=O)[C@H](CC(C)C)NC(=O)[C@H](CCCCN)NC(C)=O)C(C)C)[C@@H](C)CC)[C@@H](C)O)[C@@H](C)O)C(N)=O` (stereo partly specified), the result in the assay on Mus musculus [2] and in the assay on Mus musculus [3] was Active.

In the case of `CCCCCCCCCCCCCCC(NC(=O)C(CCCCCCCCCCCCCC)NC(=O)[C@H](CO)NC(=O)[C@H](CO)NC(=O)[C@H](CCCCN)NC(=O)[C@H](CO[C@H]1O[C@H](CO)[C@H](O)[C@H](O)[C@H]1NC(C)=O)NC(=O)[C@H](CO[C@H]1O[C@H](CO)[C@H](O)[C@H](O)[C@H]1NC(C)=O)NC(=O)[C@H](CO[C@H]1O[C@H](CO)[C@H](O)[C@H](O)[C@H]1NC(C)=O)NC(=O)[C@H](CCCCNC(=O)[C@H](CC(C)C)NC(=O)[C@H](CCCCN)NC(=O)[C@H](CCC(=O)O)NC(=O)[C@H](Cc1ccccc1)NC(=O)[C@H](CC(N)=O)NC(=O)[C@@H](NC(=O)[C@@H](NC(=O)[C@H](CO)NC(C)=O)[C@@H](C)CC)[C@@H](C)CC)NC(=O)[C@@H](NC(=O)[C@H](CC(=O)O)NC(=O)[C@H](CCCCN)NC(=O)[C@H](Cc1ccc(O)cc1)NC(=O)[C@@H](NC(=O)[C@@H](NC(=O)[C@H](CCCCN)NC(=O)[C@H](Cc1c[nH]c2ccccc12)NC(=O)[C@@H](NC(=O)[C@H](C)NC(=O)[C@H](Cc1ccccc1)NC(=O)[C@H](CC(C)C)NC(=O)[C@H](CCCCN)NC(C)=O)C(C)C)[C@@H](C)CC)[C@@H](C)O)[C@@H](C)O)C(N)=O` (stereo partly specified), in the assay with Mus musculus [3], the outcome was inactive.

Values taken from ChEMBL document CHEMBL2163216, “Design of fully synthetic, self-adjuvanting vaccine incorporating the tumor-associated carbohydrate Tn antigen and lipoamino acid-based Toll-like receptor 2 ligand” (J Med Chem, 2012).
